# Measured values published in patent publication US20260083865A1, “PROSTATE SPECIFIC MEMBRANE ANTIGEN (PSMA) LIGANDS AND USE THEREOF” (priority 2022, published 2026).
# Entries after “also recorded” stand apart in the source; their conditions may differ. Numbered stars: 1 amine (or outer) side, 2 acyl side, 3 side chain; on linkers, the order of the positions; unused ones are H or OH. Bridge positions count the residues as written; N and C are the ends. Square brackets hold non-standard residues; d marks the D form. Peptide text beside a SMILES is read from it. * marks the point of attachment. DOTA = O=C(O)CN1CCN(CC(=O)O)CCN(CC(=O)*)CCN(CC(=O)O)CC1; Phe(4-Cl) = N[C@@H](Cc1ccc(Cl)cc1)C(=O)O; Arg(Me) = CNC(=N)NCCC[C@H](N)C(=O)O; X1 = O=C(CC1CCN([*:1])CC1)[*:2]; Lys(Me) = CNCCCC[C@H](N)C(=O)O; Tle = CC(C)(C)[C@H](N)C(=O)O; Aib = CC(C)(N)C(=O)O
# Tested on: PSMA-expressing ST1273 tumors
# Assay: Efficacy study in mice with PSMA-expressing ST1273 tumors (tumor volume)
# Assay type: in vivo
# Text: The efficacy of ^177Lu-PSM-0194 (PSM-0194 labeled with radioactive Lutetium-177) was investigated in the PDX tumor model ST1273. […] The ST1273 PDX model was developed at XenoSTART (San Antonio, Texas, USA) and PSMA expression was confirmed by immunohistochemistry.
# ST1273 tumor fragments were transplanted subcutaneously at the right flank of female NMRI nu/nu mice. In brief, the parent animals with ST1273 PDX tumors for transplantation were euthanized by cervical dislocation. The tumors were resected and trimmed to remove the connective tissues. The tumors were put in a Petri dish with PBS and cut with a scalpel into pieces of approximately 5×5×5 mm. Recipient mice were anesthetized (isoflurane, 1-3% in ambient air supplemented with 100% O2) and an incision cut in the skin on the back. Room was made for the tumor between the muscle and skin with forceps. The tumor pieces were dipped in PBS before being placed under the skin with forceps. The incision was closed with a 7 mm wound clip. Another incision was cut in the skin on the back, where a testosterone rod was inserted subcutaneously with forceps (PreclinApps, Testosterone MedRod 75 μg/day, drug release duration 100 days). The incision was closed with non-absorbable prolene 5-0 sutures and animals were chipped for identification and allowed to recover from anesthesia. Tumor growth and animal weight were measured twice a week starting 7 days after inoculation. Tumor size was measured by caliper and the volume was estimated using the following formula 0.52×(length×width^2).
# 6-7 weeks after inoculation, three mice with ST1273 PDX tumors were dosed with ^177Lu-PSM-0194 and were subjected to SPECT/computed tomography scans. Tumor size measurement was continued for 42 days after dosing. In brief, PSM-0194 was labeled with radioactive Lutetium-177 with a molar activity of 30 MBq/nmol. An activity dose of 30 MBq per mouse was injected intravenously. The mice injected with ^177Lu—PSM-0194 underwent SPECT/computed tomography scans at 4, 24, and 72 hours p.i. to evaluate the distribution of ^177Lu-PSM-0194 in different tissues. Regions of interest (ROI) were drawn based on computed tomography images for the tumor and following organs: heart (estimate of blood), kidney (left), kidney (right), and tail. Uptake of ^177Lu-PSM-0194 (% ID/g, decay-corrected) in the corresponding ROI was determined by quantitative imaging analysis. […] Highest uptake in non-tumor organs was found in the kidneys with a favorable tumor-to-kidney ratio of 3.3-3.4.
# The tumor size measurements were continued for 42 days after dosing. The effect of therapy ^177Lu—PSM-0194 on the tumor volume was evaluated for each individual mouse. […] Tumor volume continued declining to a nadir on day 20, with a mean tumor volume (MTV) of 16±16 mm^3 (mean SEM). […] For the calculation of relative volumes, the tumor volumes on the day of dosing (day 0) were set to 100%.
structure (smiles),measurement,setting,value
"CNCCCC[C@@H]1NC(=O)[C@@H](NC(=O)[C@H](Cc2ccc(Cl)cc2)NC(=O)C(C)(C)NC(=O)[C@@H](NC(=O)CC2CCN(C(=O)CN3CCN(CC(=O)O)CCN(CC(=O)O)CCN(CC(=O)O)CC3)CC2)[C@@H](C)O)CSSC[C@@H](C(=O)N[C@H](C(=O)N[C@H](C(N)=O)[C@@H](C)O)C(C)(C)C)NC(=O)[C@H](CC(N)=O)NC(=O)C(C)(C)NC(=O)[C@H](CCCNC(=N)NC)NC1=O [^177Lu-PSM-0194, metal not drawn] ({DOTA}-[X1]T[Aib][Phe(4-Cl)]C[Lys(Me)][Arg(Me)][Aib]NC[Tle]T-NH2; disulfide 5-10)",effect of therapy on the tumor volume,"ST1273 PDX mice, 30 MBq i.v., followed 42 days after dosing",reduction of the tumor volumes; also recorded: strong tumor regression and sustained tumor suppression
same,start of re-growth of the tumor,"animal M10, 30 MBq i.v.",23 days
same,tumor volume,"animal M10, day 42 after dosing, 30 MBq i.v.",407 mm^3
same,mean tumor volume (MTV) at nadir,"day 20 after dosing, 30 MBq i.v., three mice, mean SEM",16±16 mm^3
same,Tumor volumes,"mouse M9, study day 2",390 mm^3
same,Relative tumor volume,"mouse M9, study day 2, day 0 = 100%",112%
same,Tumor volumes,"mouse M9, study day 6",124 mm^3
same,Relative tumor volume,"mouse M9, study day 6, day 0 = 100%",36%
same,Tumor volumes,"mouse M9, study day 9",65 mm^3
same,Relative tumor volume,"mouse M9, study day 9, day 0 = 100%",19%
same,Tumor volumes,"mouse M9, study day 13",31 mm^3
same,Relative tumor volume,"mouse M9, study day 13, day 0 = 100%",9.0%
same,Tumor volumes,"mouse M9, study day 16",43 mm^3
same,Relative tumor volume,"mouse M9, study day 16, day 0 = 100%",12%
same,Tumor volumes,"mouse M9, study day 20",0 mm^3
same,Relative tumor volume,"mouse M9, study day 20, day 0 = 100%",0.0%
same,Tumor volumes,"mouse M9, study day 23",0 mm^3
same,Relative tumor volume,"mouse M9, study day 23, day 0 = 100%",0.0%
same,Tumor volumes,"mouse M9, study day 27",0 mm^3
same,Relative tumor volume,"mouse M9, study day 27, day 0 = 100%",0.0%
same,Tumor volumes,"mouse M9, study day 30",0 mm^3
same,Relative tumor volume,"mouse M9, study day 30, day 0 = 100%",0.0%
same,Tumor volumes,"mouse M9, study day 34",0 mm^3
same,Relative tumor volume,"mouse M9, study day 34, day 0 = 100%",0.0%
same,Tumor volumes,"mouse M9, study day 37",0 mm^3
same,Relative tumor volume,"mouse M9, study day 37, day 0 = 100%",0.0%
same,Tumor volumes,"mouse M9, study day 41",0 mm^3
same,Relative tumor volume,"mouse M9, study day 41, day 0 = 100%",0.0%
same,Tumor volumes,"mouse M9, study day 42",0 mm^3
same,Relative tumor volume,"mouse M9, study day 42, day 0 = 100%",0.0%
same,Tumor volumes,"mouse M10, study day 2",633 mm^3
same,Relative tumor volume,"mouse M10, study day 2, day 0 = 100%",134%
same,Tumor volumes,"mouse M10, study day 6",372 mm^3
same,Relative tumor volume,"mouse M10, study day 6, day 0 = 100%",79%
same,Tumor volumes,"mouse M10, study day 9",346 mm^3
same,Relative tumor volume,"mouse M10, study day 9, day 0 = 100%",73%
same,Tumor volumes,"mouse M10, study day 13",242 mm^3
same,Relative tumor volume,"mouse M10, study day 13, day 0 = 100%",51%
same,Tumor volumes,"mouse M10, study day 16",94 mm^3
same,Relative tumor volume,"mouse M10, study day 16, day 0 = 100%",20%
same,Tumor volumes,"mouse M10, study day 20",49 mm^3
same,Relative tumor volume,"mouse M10, study day 20, day 0 = 100%",10%
same,Tumor volumes,"mouse M10, study day 23",66 mm^3
same,Relative tumor volume,"mouse M10, study day 23, day 0 = 100%",14%
same,Tumor volumes,"mouse M10, study day 27",113 mm^3
same,Relative tumor volume,"mouse M10, study day 27, day 0 = 100%",24%
same,Tumor volumes,"mouse M10, study day 30",114 mm^3
same,Relative tumor volume,"mouse M10, study day 30, day 0 = 100%",24%
same,Tumor volumes,"mouse M10, study day 34",172 mm^3
same,Relative tumor volume,"mouse M10, study day 34, day 0 = 100%",36%
same,Tumor volumes,"mouse M10, study day 37",289 mm^3
same,Relative tumor volume,"mouse M10, study day 37, day 0 = 100%",61%
same,Tumor volumes,"mouse M10, study day 41",608 mm^3
same,Relative tumor volume,"mouse M10, study day 41, day 0 = 100%",129%
same,Tumor volumes,"mouse M10, study day 42",607 mm^3
same,Relative tumor volume,"mouse M10, study day 42, day 0 = 100%",129%
same,Tumor volumes,"mouse M12, study day 2",476 mm^3
same,Relative tumor volume,"mouse M12, study day 2, day 0 = 100%",53%
same,Tumor volumes,"mouse M12, study day 6",427 mm^3
same,Relative tumor volume,"mouse M12, study day 6, day 0 = 100%",47%
same,Tumor volumes,"mouse M12, study day 9",196 mm^3
same,Relative tumor volume,"mouse M12, study day 9, day 0 = 100%",23%
same,Tumor volumes,"mouse M12, study day 13",82 mm^3
same,Relative tumor volume,"mouse M12, study day 13, day 0 = 100%",9.1%
same,Tumor volumes,"mouse M12, study day 16",109 mm^3
same,Relative tumor volume,"mouse M12, study day 16, day 0 = 100%",12%
same,Tumor volumes,"mouse M12, study day 20",0 mm^3
same,Relative tumor volume,"mouse M12, study day 20, day 0 = 100%",0.0%
same,Tumor volumes,"mouse M12, study day 23",55 mm^3
same,Relative tumor volume,"mouse M12, study day 23, day 0 = 100%",6.1%
same,Tumor volumes,"mouse M12, study day 27",56 mm^3
same,Relative tumor volume,"mouse M12, study day 27, day 0 = 100%",6.2%
same,Tumor volumes,"mouse M12, study day 30",58 mm^3
same,Relative tumor volume,"mouse M12, study day 30, day 0 = 100%",6.4%
same,Tumor volumes,"mouse M12, study day 34",47 mm^3
same,Relative tumor volume,"mouse M12, study day 34, day 0 = 100%",5.2%
same,Tumor volumes,"mouse M12, study day 37",67 mm^3
same,Relative tumor volume,"mouse M12, study day 37, day 0 = 100%",7.4%
same,Tumor volumes,"mouse M12, study day 41",74 mm^3
same,Relative tumor volume,"mouse M12, study day 41, day 0 = 100%",8.2%
same,Tumor volumes,"mouse M12, study day 42",81 mm^3
same,Relative tumor volume,"mouse M12, study day 42, day 0 = 100%",9.0%
